Here are results for 1 molecule from ChEMBL document CHEMBL4390688, “Accelerating the discovery of DGAT1 inhibitors through the application of parallel medicinal chemistry (PMC)” (Bioorg Med Chem Lett, 2019).

Series [1] is described as follows: Half life in Sprague-Dawley rat at 1 mg/kg, iv or 2 mg/kg, po. Format: ADME, organism-based. The settings on record: in vivo.
Series [2] in a line: Volume of distribution at steady state in Sprague-Dawley rat at 1 mg/kg, iv or 2 mg/kg, po. The class given is ADME, organism-based. Particulars: in vivo, read-out: Vdss.
In series [3] the target is Voltage-gated inwardly rectifying potassium channel KCNH2 (Homo sapiens, UniProt Q12809). The series is described as follows: Inhibition of human ERG.
Chain of Voltage-gated inwardly rectifying potassium channel KCNH2 (Q12809 whole entry): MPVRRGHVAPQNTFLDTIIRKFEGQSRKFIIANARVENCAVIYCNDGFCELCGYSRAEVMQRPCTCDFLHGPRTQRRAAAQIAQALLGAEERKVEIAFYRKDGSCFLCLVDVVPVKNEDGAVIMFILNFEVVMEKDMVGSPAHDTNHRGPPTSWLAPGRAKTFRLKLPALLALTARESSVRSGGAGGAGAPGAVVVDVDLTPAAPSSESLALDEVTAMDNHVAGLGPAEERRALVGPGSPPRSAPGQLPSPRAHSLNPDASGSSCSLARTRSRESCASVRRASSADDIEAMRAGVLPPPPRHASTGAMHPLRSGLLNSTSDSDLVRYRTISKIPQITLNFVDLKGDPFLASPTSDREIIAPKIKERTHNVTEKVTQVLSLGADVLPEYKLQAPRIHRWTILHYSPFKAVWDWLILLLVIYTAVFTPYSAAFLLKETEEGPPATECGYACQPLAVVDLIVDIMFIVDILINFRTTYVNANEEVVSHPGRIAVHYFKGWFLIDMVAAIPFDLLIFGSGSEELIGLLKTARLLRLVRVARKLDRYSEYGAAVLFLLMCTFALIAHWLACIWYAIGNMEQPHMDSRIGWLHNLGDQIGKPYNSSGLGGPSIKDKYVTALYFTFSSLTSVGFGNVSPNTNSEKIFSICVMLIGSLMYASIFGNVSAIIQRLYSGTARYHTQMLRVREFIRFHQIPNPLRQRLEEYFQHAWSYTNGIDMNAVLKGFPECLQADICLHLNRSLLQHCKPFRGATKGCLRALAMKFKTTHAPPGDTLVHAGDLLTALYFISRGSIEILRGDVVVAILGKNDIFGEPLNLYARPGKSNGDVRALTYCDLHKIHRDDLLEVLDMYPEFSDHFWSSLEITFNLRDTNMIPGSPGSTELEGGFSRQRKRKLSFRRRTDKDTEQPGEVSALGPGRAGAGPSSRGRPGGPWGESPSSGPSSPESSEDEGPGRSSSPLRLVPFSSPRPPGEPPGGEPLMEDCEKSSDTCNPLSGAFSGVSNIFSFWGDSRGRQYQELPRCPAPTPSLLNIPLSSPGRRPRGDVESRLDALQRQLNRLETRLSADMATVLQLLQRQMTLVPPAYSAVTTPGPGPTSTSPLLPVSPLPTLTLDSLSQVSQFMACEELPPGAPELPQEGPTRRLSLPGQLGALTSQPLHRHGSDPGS
The nature of series [4]: Clearance in Sprague-Dawley rat at 1 mg/kg, iv and 2 mg/kg, po. The settings on record: in vivo. The class given is ADME, organism-based.
A short description of series [5]: Dose normalized AUC in Sprague-Dawley rat at 1 mg/kg, iv or 2 mg/kg, po. The class given is ADME, organism-based. Particulars: in vivo.
The nature of series [6]: Clearance in Beagle dog at 1 mg/kg, iv or 2 mg/kg, po. Format: ADME, organism-based, Canis lupus familiaris. The settings on record: in vivo.
For series [7], the target named is T1, Sterol O-acyltransferase 1 (Homo sapiens, UniProt P35610).
T1 sequence (P35610 whole entry): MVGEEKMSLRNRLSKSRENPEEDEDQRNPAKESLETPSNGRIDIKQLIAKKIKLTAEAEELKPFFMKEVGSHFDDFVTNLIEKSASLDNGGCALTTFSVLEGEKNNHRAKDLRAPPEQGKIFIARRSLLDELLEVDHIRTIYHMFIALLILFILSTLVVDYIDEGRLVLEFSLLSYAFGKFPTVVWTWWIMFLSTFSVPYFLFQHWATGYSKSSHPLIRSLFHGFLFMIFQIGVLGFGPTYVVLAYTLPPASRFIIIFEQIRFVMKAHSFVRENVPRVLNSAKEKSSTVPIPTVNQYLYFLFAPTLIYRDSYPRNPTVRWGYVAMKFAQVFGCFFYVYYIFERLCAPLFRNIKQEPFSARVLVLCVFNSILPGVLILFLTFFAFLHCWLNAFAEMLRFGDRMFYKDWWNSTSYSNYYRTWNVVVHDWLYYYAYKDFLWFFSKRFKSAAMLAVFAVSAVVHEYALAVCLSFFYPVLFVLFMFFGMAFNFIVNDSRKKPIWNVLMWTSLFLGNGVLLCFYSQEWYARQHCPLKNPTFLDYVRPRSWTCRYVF
Description: Inhibition of human ACAT1

Series [8] can be described thus: Mutagenicity in Salmonella typhimurium TA98 up to 30 to 5000 ug/plate by Ames test. The settings on record: salmonella enterica subsp. enterica serovar typhimurium. The class given is toxicity.
In another series the target is Adenosine receptor A2a (Homo sapiens, UniProt P29274). The series is described as follows: Activity against human A2AR assessed as inhibition of cAMP accumulation by cAMP functional assay. (Cyclic AMP is a second messenger, typically raised through Gs and lowered through Gi signalling.)
Chain of Adenosine receptor A2a (P29274 whole entry): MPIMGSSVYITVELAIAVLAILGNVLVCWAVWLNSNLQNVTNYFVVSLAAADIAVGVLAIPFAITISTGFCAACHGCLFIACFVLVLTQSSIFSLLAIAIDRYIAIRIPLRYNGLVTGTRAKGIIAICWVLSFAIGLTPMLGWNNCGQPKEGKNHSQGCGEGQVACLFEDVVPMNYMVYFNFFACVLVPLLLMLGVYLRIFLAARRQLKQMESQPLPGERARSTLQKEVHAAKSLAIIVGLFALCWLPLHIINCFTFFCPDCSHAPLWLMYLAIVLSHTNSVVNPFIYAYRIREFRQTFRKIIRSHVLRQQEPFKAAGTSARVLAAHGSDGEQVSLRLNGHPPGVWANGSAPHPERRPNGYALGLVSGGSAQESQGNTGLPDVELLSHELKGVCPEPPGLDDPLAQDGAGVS
Series [9] can be described thus: Oral bioavailability in Sprague-Dawley rat at 2 mg/kg. The class given is ADME, organism-based. The settings on record: in vivo.
The nature of series [10]: Tmax in Beagle dog at 1 mg/kg, iv or 2 mg/kg, po. Format: ADME, organism-based, Canis lupus familiaris. The settings on record: in vivo.
The test system of a further series is Mus musculus. The series can be described thus: Reduction in lipid excursion in mouse at 3 mg/kg, po administered as single dose measured after 18 hrs by lipid tolerance test relative to control. The class given is functional. Further details: scale not given: the % may be the effect or the level left.
The target of series [11] is T2, Diacylglycerol O-acyltransferase 1 (Mus musculus, UniProt Q9Z2A7).
T2 sequence (Q9Z2A7 whole entry): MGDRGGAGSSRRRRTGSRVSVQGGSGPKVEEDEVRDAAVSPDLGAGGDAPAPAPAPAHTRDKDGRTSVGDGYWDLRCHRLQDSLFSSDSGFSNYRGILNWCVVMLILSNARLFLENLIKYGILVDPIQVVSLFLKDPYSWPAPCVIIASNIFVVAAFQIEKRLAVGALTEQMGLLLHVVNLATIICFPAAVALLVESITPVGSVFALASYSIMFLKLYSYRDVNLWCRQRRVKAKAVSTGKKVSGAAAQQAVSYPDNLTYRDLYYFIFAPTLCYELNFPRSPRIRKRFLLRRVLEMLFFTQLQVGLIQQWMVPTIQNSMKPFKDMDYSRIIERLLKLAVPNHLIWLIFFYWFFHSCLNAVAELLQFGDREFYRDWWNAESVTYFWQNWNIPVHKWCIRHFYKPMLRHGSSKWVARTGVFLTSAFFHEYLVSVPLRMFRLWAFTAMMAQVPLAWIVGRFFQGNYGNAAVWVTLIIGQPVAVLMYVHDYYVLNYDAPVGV
Description: Inhibition of mouse DGAT1

A short description of series [12]: Cmax in Beagle dog at 1 mg/kg, iv or 2 mg/kg, po. Format: ADME, organism-based, Canis lupus familiaris. The settings on record: in vivo.
Series [13] is described as follows: Oral bioavailability in Beagle dog at 2 mg/kg. Format: ADME, organism-based, Canis lupus familiaris. Particulars: in vivo.
The target of series [14] is T3, Diacylglycerol O-acyltransferase 1 (Homo sapiens, UniProt O75907).
T3 sequence (O75907 whole entry): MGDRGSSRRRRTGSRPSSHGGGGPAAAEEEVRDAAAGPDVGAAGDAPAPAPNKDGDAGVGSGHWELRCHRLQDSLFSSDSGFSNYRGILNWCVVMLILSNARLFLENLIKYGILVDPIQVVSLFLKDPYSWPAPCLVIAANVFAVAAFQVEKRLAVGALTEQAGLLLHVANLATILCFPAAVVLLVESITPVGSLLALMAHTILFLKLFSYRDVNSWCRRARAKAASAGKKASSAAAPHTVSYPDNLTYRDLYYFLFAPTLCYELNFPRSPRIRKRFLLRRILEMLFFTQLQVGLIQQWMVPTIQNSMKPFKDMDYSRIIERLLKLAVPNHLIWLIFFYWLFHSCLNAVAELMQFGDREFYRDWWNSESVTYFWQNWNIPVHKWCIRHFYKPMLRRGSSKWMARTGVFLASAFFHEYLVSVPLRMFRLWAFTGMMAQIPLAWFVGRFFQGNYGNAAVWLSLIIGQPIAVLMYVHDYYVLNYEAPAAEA
Description: Inhibition of human DGAT1

The nature of series [15]: Half life in Beagle dog at 1 mg/kg, iv or 2 mg/kg, po. The class given is ADME, organism-based, Canis lupus familiaris. Particulars: in vivo.
The nature of series [16]: Mutagenicity in Salmonella typhimurium TA100 up to 30 to 5000 ug/plate by Ames test. The class given is toxicity. Particulars: salmonella enterica subsp. enterica serovar typhimurium. In general terms: The Ames test uses bacterial strains that need an amino acid and regain growth without it when mutated back.
Series [17] in a line: Volume of distribution at steady state in Beagle dog at 1 mg/kg, iv or 2 mg/kg, po. Particulars: in vivo, read-out: Vdss. Format: ADME, organism-based, Canis lupus familiaris.
The nature of series [18]: Cmax in Sprague-Dawley rat at 1 mg/kg, iv or 2 mg/kg, po. Format: ADME, organism-based. The settings on record: in vivo.
The next series concerns Canis familiaris. The series is described as follows: Reduction in lipid excursion in dog at 1 mg/kg, po measured by lipid tolerance test relative to control. The class given is functional, Canis lupus familiaris. More on the design: scale not given: the % may be the effect or the level left.
The nature of series [19]: Mutagenicity in Salmonella typhimurium […] up to 30 to 5000 ug/plate by Ames test. Format: toxicity. The settings on record: salmonella enterica subsp. enterica serovar typhimurium.
Series [20] in a line: Dose normalized AUC in Beagle dog at 1 mg/kg, iv or 2 mg/kg, po. Particulars: in vivo. The class given is ADME, organism-based, Canis lupus familiaris.
A short description of series [21]: Tmax in Sprague-Dawley rat at 1 mg/kg, iv or 2 mg/kg, po. The settings on record: in vivo. Format: ADME, organism-based.

As usually defined, the half-life is the time in which the quantity being followed falls by half. A word on the Ki: it is the dissociation constant of the complex between target and ligand, obtained from inhibition or displacement. As usually defined, the IC50 is the concentration that inhibits the measured activity by half. For orientation: bioavailability means dose-corrected exposure relative to a reference, in per cent. A word on the Tmax: it is the time from dosing to the highest level. One may read the Cmax as the maximum level reached in the sampled fluid or tissue. As to `O=C(O)C[C@H]1CC[C@H](OC2CCN(c3ccc(-c4nc5cc(F)c(F)cc5[nH]4)cn3)CC2)CC1`, the half-life in series [1] was 1 h; in series [15], 3.2 h. The figures for the Vd in series [2] and in series [17] were 1.08 L/kg and 0.81 L/kg, respectively. The molecule also yielded a Ki in series [3] of 40.7 µM. In addition, the clearance was 17 mL/min/kg in series [4] and 3.4 mL/min/kg in [6]. For the same molecule, the AUC/dose came to 0.3 µM·h/mg/kg in [5] and 4.1 µM·h/mg/kg in series [20]. For the same molecule, the IC50 is > 10 µM in series [7], 3.48 µM at Adenosine receptor A2a, 0.046 µM in series [11] and 0.0065 µM in series [14]. Further, the Activity result is “Non-Toxic” in [8]; 84% in the series on Mus musculus; “Non-Toxic” in [16]; 100% with Canis familiaris; “Non-Toxic” in series [19]. Moreover, the bioavailability in series [9] was 17%; in series [13], 40%. In addition, the Tmax came to 0.5 h in [10] and 1 h in series [21]. The Cmax in [12] came out at 2400 nM; in series [18], 230 nM.
